# US20240246940A1, “HETEROARYL DERIVATIVE COMPOUND AND USE THEREOF” (VORONOI INC., priority 2021, published 2024)
# What was measured:
# HER2 = target: T1, HER2 (Homo sapiens, UniProt P04626); assay: Biochemical kinase assay for HER2 (Reaction Biology Corp), ATP 10 μM, 10-dose IC50
# T1 construct: purchased Reaction Biology Corp
# Procedure: (§1) Biochemical kinase assays for HER2 and EGFR were performed by Reaction Biology Corp (San Diego, USA).
# EGFR = target: T2, EGFR (Homo sapiens, UniProt P00533); assay: Biochemical kinase assay for EGFR (Reaction Biology Corp), ATP 10 μM, 10-dose IC50
# T2 construct: purchased Reaction Biology Corp
# T2 sequence (P00533 25-1210): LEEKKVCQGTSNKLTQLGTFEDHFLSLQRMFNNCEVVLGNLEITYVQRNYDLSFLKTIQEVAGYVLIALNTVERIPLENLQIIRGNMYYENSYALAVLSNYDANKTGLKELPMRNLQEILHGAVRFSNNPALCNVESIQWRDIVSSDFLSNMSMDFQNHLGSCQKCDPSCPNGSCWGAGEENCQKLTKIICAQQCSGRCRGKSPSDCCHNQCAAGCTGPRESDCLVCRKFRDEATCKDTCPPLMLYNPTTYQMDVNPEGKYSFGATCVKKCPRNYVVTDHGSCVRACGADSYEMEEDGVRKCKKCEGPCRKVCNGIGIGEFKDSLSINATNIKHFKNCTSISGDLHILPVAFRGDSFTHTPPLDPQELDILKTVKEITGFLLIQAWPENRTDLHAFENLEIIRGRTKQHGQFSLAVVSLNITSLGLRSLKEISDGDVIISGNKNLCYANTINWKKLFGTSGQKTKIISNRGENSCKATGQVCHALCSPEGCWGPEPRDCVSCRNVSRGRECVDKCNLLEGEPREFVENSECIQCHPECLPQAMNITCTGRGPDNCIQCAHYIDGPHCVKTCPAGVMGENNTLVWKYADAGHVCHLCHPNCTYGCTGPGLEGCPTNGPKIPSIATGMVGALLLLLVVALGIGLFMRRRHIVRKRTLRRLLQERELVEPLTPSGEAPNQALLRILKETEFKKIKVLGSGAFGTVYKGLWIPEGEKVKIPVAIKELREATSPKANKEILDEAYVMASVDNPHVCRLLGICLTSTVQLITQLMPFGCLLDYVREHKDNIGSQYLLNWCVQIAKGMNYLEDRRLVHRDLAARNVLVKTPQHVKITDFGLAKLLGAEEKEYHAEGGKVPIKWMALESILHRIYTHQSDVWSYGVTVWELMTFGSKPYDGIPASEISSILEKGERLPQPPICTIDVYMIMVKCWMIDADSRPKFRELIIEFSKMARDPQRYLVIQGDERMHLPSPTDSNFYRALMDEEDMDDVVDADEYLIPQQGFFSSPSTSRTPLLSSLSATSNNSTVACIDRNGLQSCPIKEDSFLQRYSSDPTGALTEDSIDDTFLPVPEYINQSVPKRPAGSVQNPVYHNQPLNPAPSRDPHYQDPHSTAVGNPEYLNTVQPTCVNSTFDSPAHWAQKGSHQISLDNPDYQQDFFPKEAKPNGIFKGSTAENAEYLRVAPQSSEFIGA
# Procedure: as §1
# [1] = system: SK-BR-3 cells (HER2 overexpressing cell line); assay: SK-BR-3 cell proliferation inhibitory activity (CellTiter-Glo, 120 hours); assay type: cell-based; settings: Homo sapiens
# Method in brief: (§2)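 Cells seeded 24 h (HaCaT 3000/well, N-87 5000/well) or 48 h (SK-BR-3, BT-474 5000/well) before 11-point dosing: 0.2 nM–10 μM (SK-BR-3, BT-474), […]–5 μM (N-87), 0.8 nM–45 μM (HaCaT). CellTiter-Glo luminescence read; GI50 from growth relative to control, triplicate.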
# [2] = system: BT-474 cells (HER2 overexpressing cell line); assay: BT-474 cell proliferation inhibitory activity (CellTiter-Glo, 120 hours); assay type: cell-based; settings: Homo sapiens
# Method in brief: as §2
# [3] = system: N-87 cells (HER2 overexpressing cell line); assay: N-87 cell proliferation inhibitory activity (CellTiter-Glo, 72 hours); assay type: cell-based
# Method in brief: as §2
# [4] = system: HaCaT cells (EGFR expressing cell line); assay: HaCaT cell proliferation inhibitory activity (CellTiter-Glo, 72 hours); assay type: cell-based; settings: Homo sapiens
# Method in brief: as §2
# [5] = system: Ba/F3 cells expressing HER2 L869R; assay: Transduced Ba/F3 cell proliferation inhibitory activity, HER2 L869R; assay type: cell-based; settings: Mus musculus, BaF3, 72 hours
# Procedure: (§3) For Ba/F3 cells, RPMI-1640 supplemented with 10% FBS and 5 ng/ml IL-3 (R&D Systems) was used. Transduced Ba/F3 cells were cultured by adding 1 μg/ml puromycin (Invitrogen) to the same medium.
# (§4) 3000 to 5000 cells were aliquoted into each well of a white clear bottom 96 well plate (Corning) 24 hours before treatment with the compounds of Examples. The compounds of Examples were diluted in dimethyl sulfoxide (three-fold dilution, a total of 12 concentrations) and injected each in an amount of 1 μl to a final concentration of 0.2 nM to 5 μM. For the measurement of living cells, the cells were stored at room temperature for 10 minutes using CellTiter-Glo luminescent cell-viability reagent (Promega) in 72 hours after treatment with the compounds of Examples, and the luminescence intensity thereof was measured using a reader (SynergyNeo, Biotek). Each test was repeated three times. The result values were calculated as a cell growth rate (%) compared to those of the control group. A graph was created using the GraphPad Prism version 8.3.0 program, and GI50 values were calculated.
# [6] = system: Ba/F3 cells expressing HER2 L756S; assay: Transduced Ba/F3 cell proliferation inhibitory activity, HER2 L756S; assay type: cell-based; settings: Mus musculus, BaF3; Ba/F3 HER2 L755S, 72 hours
# Procedure: as §3, §4
# [7] = system: Ba/F3 cells expressing HER2 T798I; assay: Transduced Ba/F3 cell proliferation inhibitory activity, HER2 T798I; assay type: cell-based; settings: Mus musculus, BaF3, 72 hours
# Procedure: as §3, §4
# [8] = system: Ba/F3 cells expressing HER2 T862A; assay: Transduced Ba/F3 cell proliferation inhibitory activity, HER2 T862A; assay type: cell-based; settings: Mus musculus, BaF3, 72 hours
# Procedure: as §3, §4
# [9] = system: Ba/F3 cells expressing EGFR G719A; assay: Transduced Ba/F3 cell proliferation inhibitory activity, EGFR G719A; assay type: cell-based; settings: Mus musculus, BaF3, 72 hours
# Procedure: as §3, §4
# [10] = system: Ba/F3 cells expressing EGFR L861Q; assay: Transduced Ba/F3 cell proliferation inhibitory activity, EGFR L861Q; assay type: cell-based; settings: Mus musculus, BaF3, 72 hours
# Procedure: as §3, §4
# [11] = system: Ba/F3 cells expressing EGFR S768I; assay: Transduced Ba/F3 cell proliferation inhibitory activity, EGFR S768I; assay type: cell-based; settings: Mus musculus, BaF3, 72 hours
# Procedure: as §3, §4
# [12] = system: Ba/F3 cells expressing EGFR G719A/S768I; assay: Transduced Ba/F3 cell proliferation inhibitory activity, EGFR G719A/S768I; assay type: cell-based; settings: Mus musculus, BaF3, 72 hours
# Procedure: as §3, §4
# [13] = system: Ba/F3 cells expressing EGFR Del19/T790M; assay: Transduced Ba/F3 cell proliferation inhibitory activity, EGFR Del19/T790M; assay type: cell-based; settings: Mus musculus, BaF3, 72 hours
# Procedure: as §3, §4
# [14] = system: Ba/F3 cells expressing HER2 WT; assay: Transduced Ba/F3 cell proliferation inhibitory activity, HER2 WT; assay type: cell-based; settings: Mus musculus, BaF3, 72 hours
# Procedure: as §3, §4
# [15] = system: Ba/F3 cells expressing EGFR WT; assay: Transduced Ba/F3 cell proliferation inhibitory activity, EGFR WT; assay type: cell-based; settings: Mus musculus, BaF3, 72 hours
# Procedure: as §3, §4
# T1 sequence (P04626 23-1255): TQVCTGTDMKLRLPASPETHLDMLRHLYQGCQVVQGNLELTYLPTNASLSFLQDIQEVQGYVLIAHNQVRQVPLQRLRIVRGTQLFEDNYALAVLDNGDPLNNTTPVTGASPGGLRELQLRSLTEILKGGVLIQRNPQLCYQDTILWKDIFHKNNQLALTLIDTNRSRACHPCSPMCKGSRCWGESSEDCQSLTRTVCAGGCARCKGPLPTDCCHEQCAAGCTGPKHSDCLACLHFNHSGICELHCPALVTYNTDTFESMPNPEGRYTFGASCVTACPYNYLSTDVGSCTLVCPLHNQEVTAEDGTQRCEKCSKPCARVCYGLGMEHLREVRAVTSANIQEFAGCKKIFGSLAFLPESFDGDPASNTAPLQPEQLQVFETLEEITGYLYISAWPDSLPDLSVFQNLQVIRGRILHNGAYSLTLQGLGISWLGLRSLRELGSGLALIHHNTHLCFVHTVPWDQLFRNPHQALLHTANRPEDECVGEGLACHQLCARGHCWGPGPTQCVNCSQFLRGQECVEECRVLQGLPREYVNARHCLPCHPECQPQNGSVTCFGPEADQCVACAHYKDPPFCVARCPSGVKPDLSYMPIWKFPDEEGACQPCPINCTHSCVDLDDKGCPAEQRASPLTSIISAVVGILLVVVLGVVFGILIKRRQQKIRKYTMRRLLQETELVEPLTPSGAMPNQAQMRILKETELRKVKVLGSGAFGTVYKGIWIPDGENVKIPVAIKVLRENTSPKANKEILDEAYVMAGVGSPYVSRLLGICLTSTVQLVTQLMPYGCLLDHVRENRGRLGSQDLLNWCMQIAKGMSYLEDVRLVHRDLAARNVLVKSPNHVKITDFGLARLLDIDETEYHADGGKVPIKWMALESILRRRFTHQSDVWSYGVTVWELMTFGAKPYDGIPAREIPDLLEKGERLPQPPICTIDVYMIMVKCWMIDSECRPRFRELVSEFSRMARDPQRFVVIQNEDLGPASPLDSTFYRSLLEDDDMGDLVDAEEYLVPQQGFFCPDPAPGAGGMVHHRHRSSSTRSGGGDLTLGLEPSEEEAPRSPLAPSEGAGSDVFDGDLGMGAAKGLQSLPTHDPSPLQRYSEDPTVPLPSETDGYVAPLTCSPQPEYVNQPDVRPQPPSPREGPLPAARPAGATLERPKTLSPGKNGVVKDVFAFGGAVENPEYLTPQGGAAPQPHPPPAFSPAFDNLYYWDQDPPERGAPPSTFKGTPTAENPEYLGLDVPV
IC50 (HER2) [nM],IC50 (EGFR) [nM],GI50 [1] [nM],GI50 [2] [nM],GI50 [5] [nM],GI50 [6] [nM],GI50 [7] [nM],GI50 [8] [nM],GI50 [9] [nM],GI50 [10] [nM],GI50 [11] [nM],GI50 [12] [nM],GI50 [13] [nM],GI50 [14] [nM],GI50 [15] [nM],SMILES,GI50 [3] [nM],GI50 [4] [nM]
,,≤ 150,,≤ 50,,≤ 50,,,,,,,,,"C=CC(=O)N1CCC(Oc2cc3c(Nc4cc(-c5cccs5)ccc4OC)ncnc3cc2OC)CC1 [Example 78, 1-(4-((7-methoxy-4-((2-methoxy-5-(thiophen-2-yl)phenyl)amino)quinazolin-6-yl)oxy)piperidin-1-yl)prop-2-en-1-one]",,
≤ 50,,≤ 150,≤ 150,≤ 50,≤ 50,≤ 50,≤ 50,≤ 50,≤ 50,≤ 50,≤ 50,≤ 50,≤ 50,≤ 50,"C=CC(=O)N1CCC(Oc2cc3c(Nc4cc(-c5ccco5)ccc4OC)ncnc3cc2OC)CC1 [Example 80, 1-(4-((4-((5-(furan-2-yl)-2-methoxyphenyl)amino)-7-methoxy-quinazolin-6-yl)oxy)piperidin-1-yl)prop-2-en-1-one]",,≤ 150
≤ 50,,,,,,,,,,,,,,,"C=CC(=O)N1CCC(Oc2cc3c(Nc4cc(-c5cc(C)co5)ccc4OC)ncnc3cc2OC)CC1 [Example 90, 1-(4-((7-methoxy-4-((2-methoxy-5-(4-methylfuran-2-yl)phenyl)amino)quinazolin-6-yl)oxy)piperidin-1-yl)prop-2-en-1-one]",,
,,≤ 150,≤ 150,≤ 50,≤ 50,,≤ 50,,,,,,,,"C=CC(=O)N1CCC(Oc2cc3c(Nc4cc(-c5ccco5)ccc4OC)ncnc3cc2OC)C(F)C1 (stereo not shown) [Example 112, 1-(3-fluoro-4-((4-((5-(furan-2-yl)-2-methoxyphenyl)amino)-7-methoxy-quinazolin-6-yl)oxy)piperidin-1-yl)prop-2-en-1-one]",≤ 150,≤ 150
,,,≤ 150,,≤ 50,100 to 500,≤ 50,,,,,,≤ 50,,"C=CC(=O)N1CCC(Nc2cc3c(Nc4cc(-c5ccco5)ccc4OC)ncnc3cc2OCC)CC1 [Example 300, 1-(4-((7-ethoxy-4-((5-(furan-2-yl)-2-methoxyphenyl)amino)quinazolin-6-yl)amino)piperidin-1-yl)prop-2-en-1-one]",≤ 150,≤ 150

# More lines, now with the values behind:
SMILES,IC50 (HER2) [nM],IC50 (EGFR) [nM],GI50 [1] [nM],GI50 [2] [nM],GI50 [5] [nM],GI50 [6] [nM],GI50 [7] [nM],GI50 [8] [nM],GI50 [9] [nM],GI50 [10] [nM],GI50 [11] [nM],GI50 [12] [nM],GI50 [13] [nM],GI50 [14] [nM],GI50 [15] [nM],GI50 [3] [nM],GI50 [4] [nM]
"C=CC(=O)N1CCC(Oc2cc3c(Nc4cc(-c5ccc(F)cc5F)ccc4OC)ncnc3cc2OC)CC1 [Example 68, 1-(4-((4-((2′,4′-difluoro-4-methoxy-[1,1′-biphenyl]-3-yl)amino)-7-methoxy-quinazolin-6-yl)oxy)piperidin-1-yl)prop-2-en-1-one]",≤ 50,≤ 50,≤ 150,≤ 150,≤ 50,≤ 50,100 to 500,≤ 50,≤ 50,≤ 50,50 to 100,≤ 50,≤ 50,≤ 50,50 to 100,≤ 150,≤ 150
"C=CC(=O)N1CCC(Oc2cc3c(Nc4cc(-c5ccc(F)cc5F)ccc4OC)ncnc3cc2OC)C(F)C1 (stereo not shown) [Example 143, 1-(4-((4-((2′,4′-difluoro-4-methoxy-[1,1′-biphenyl]-3-yl)amino)-7-methoxy-quinazolin-6-yl)oxy)-3-fluoropiperidin-1-yl)prop-2-en-1-one]",,,≤ 150,≤ 150,≤ 50,≤ 50,,≤ 50,,,,,,,,≤ 150,≤ 150
"C=CC(=O)N1CCC(Oc2cc3c(Nc4cc(-c5ccc(F)cc5F)c(F)cc4OC)ncnc3cc2OC)CC1 [Example 157, 1-(4-((7-methoxy-4-((2′,4′,6-trifluoro-4-methoxy-[1,1′-biphenyl]-3-yl)amino)quinazolin-6-yl)oxy)piperidin-1-yl)prop-2-en-1-one]",≤ 50,,,≤ 150,,,,,,,,,,,,≤ 150,≤ 150
"C=CC(=O)N1CCC(Nc2cc3c(Nc4cc(-c5ccc(F)cc5F)ccc4OC)ncnc3cc2OC)CC1 [Example 299, 1-(4-((4-((2′,4′-difluoro-4-methoxy-[1,1′-biphenyl]-3-yl)amino)-7-methoxyquinazolin-6-yl)amino)piperidin-1-yl)prop-2-en-1-one]",,,≤ 150,≤ 150,,,,,,,,,,,,≤ 150,≤ 150
"COc1cc2ncnc(Nc3cc(-c4ccc(F)cc4F)ccc3OC)c2cc1NC(=O)/C(F)=C\[C@H]1CCCN1C [Example 304, (R,E)-N-(4-((2′,4′-difluoro-4-methoxy-[1,1′-biphenyl]-3-yl)amino)-7-methoxyquinazolin-6-yl)-2-fluoro-3-(1-methylpyrrolidin-2-yl)acrylamide]",≤ 50,≤ 50,,≤ 150,,,,,,,,,,,,≤ 150,≤ 150
"COc1cc2ncnc(Nc3cc(-c4ccc(F)cc4F)ccc3OC)c2cc1NC(=O)/C=C/[C@H]1CCCN1C [Example 305, (R,E)-N-(4-((2′,4′-difluoro-4-methoxy-[1,1′-biphenyl]-3-yl)amino)-7-methoxyquinazolin-6-yl)-3-(1-methylpyrrolidin-2-yl)acrylamide]",≤ 50,≤ 50,≤ 150,≤ 150,,≤ 50,≤ 50,≤ 50,,,,,,≤ 50,,≤ 150,≤ 150
"COc1cc2ncnc(Nc3cc(-c4ccco4)ccc3OC)c2cc1NC(=O)/C=C/[C@H]1CCCN1C [Example 306, (R,E)-N-(4-((5-(furan-2-yl)-2-methoxyphenyl)amino)-7-methoxyquinazolin-6-yl)-3-(1-methylpyrrolidin-2-yl)acrylamide]",≤ 50,≤ 50,≤ 150,≤ 150,,,,,,,≤ 50,,,,≤ 50,≤ 150,≤ 150
"COc1cc2ncnc(Nc3cc(-c4ccco4)ccc3OC)c2cc1NC(=O)/C(F)=C\[C@H]1CCCN1C [Example 307, (R,E)-2-fluoro-N-(4-((5-(furan-2-yl)-2-methoxyphenyl)amino)-7-methoxyquinazolin-6-yl)-3-(1-methylpyrrolidin-2-yl)acrylamide]",,,≤ 150,≤ 150,,,,,,,≤ 50,,,,≤ 50,≤ 150,≤ 150
